Reference: PMC10954734, “Structure of antiviral drug bulevirtide bound to hepatitis B and D virus receptor protein NTCP” (Nature Communications, 2024)

What was measured:
human NTCP = target: T1, human NTCP (Homo sapiens, UniProt Q14973); assay: preS1-AX568 binding to HEK-NTCP cells (and its inhibition by TC); assay type: cell-based; conditions: preincubation with 250 µM TC
T1 construct: The full-length wild-type human NTCP gene (UniProt ID: Q14973); expressed in transfected cells
T1 sequence (Q14973 1-349): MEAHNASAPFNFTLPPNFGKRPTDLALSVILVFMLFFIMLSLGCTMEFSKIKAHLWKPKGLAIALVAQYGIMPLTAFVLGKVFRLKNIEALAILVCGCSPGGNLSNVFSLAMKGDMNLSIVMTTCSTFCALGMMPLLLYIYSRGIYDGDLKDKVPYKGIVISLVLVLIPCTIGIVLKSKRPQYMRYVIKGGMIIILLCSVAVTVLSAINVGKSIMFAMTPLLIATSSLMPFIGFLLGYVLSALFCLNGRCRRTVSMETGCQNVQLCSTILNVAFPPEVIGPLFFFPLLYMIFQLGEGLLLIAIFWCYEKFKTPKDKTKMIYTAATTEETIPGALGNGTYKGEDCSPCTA
Protocol: Human embryonic kidney Flp-In T-Rex 293 cells (Thermo Fisher Scientific, R78007, hereafter referred to as non-NTCP expressing HEK293 cells) stably expressing the human NTCP protein were generated according to the manufacturer’s guidelines as reported before[62] and are hereafter referred to as HEK-NTCP cells. […] For induction of NTCP expression, HEK-NTCP cells were incubated with 1 μg/mL tetracycline (Carl Roth, HP63.1)[62]. […] Inhibitor preincubation was performed over 5 min at 37 °C, consistent with previously published data[64]. Quantification of relative fluorescence was assessed at 570 nm excitation and 615 nm emission on a fluorescence microplate reader (TECAN Life Sciences).

Gly158Arg human NTCP = conditions: ref [54]; cited from earlier work
Description: (§1) We aligned the sequence of human NTCP to that of Cynomolgus monkey and Common squirrel monkey, which are representatives of the Old and New World monkeys, respectively (Fig. 6a and Supplementary Fig. 6).

[1] = test system: Gly158Arg Common squirrel monkey NTCP; conditions: ref [54]; cited from earlier work
Description: as §1

[2] = test system: SVPs from patient ID1 (HBV GtD); assay: Binding of nanodisc-reconstituted NTCP-eYFP to SVPs of patient ID1 (GtD); conditions: 25–100 nM
Protocol: (§2) The lipids were then mixed with detergent-purified NTCP and incubated at room temperature for 5 min with gentle agitation. Next, membrane scaffold protein (MSP1D1) was added to the mixture and incubated for 20 min at room temperature. […] Bio-Beads were removed by passing through a gravity column (Bio-Rad), and the mixture was briefly spun at 4000 × g at 4 °C to remove excess lipids. […] Peak fractions containing nanodisc-reconstituted NTCP were collected and concentrated.
(§3) Subviral particles (SVPs) were isolated from plasma of two chronic HBV-infected patients by three consecutive ultracentrifugation steps according to published protocols[13]. Briefly, SVP were separated from virions using rate zonal ultracentrifugation through a sucrose density gradient. SVP-containing fractions were pooled and further purified using caesium chloride (CsCl) flotation ultracentrifugation. Pooled SVP-fractions were further purified using a second sucrose density gradient and concentrated by ultrafiltration. […] For fluorescence measurement, 100 μL HBS buffer was added to each well and the fluorescence intensity of eYFP was detected at 485 nm excitation and 535 nm emission on a fluorescence microplate reader (TECAN Life Sciences).

[3] = test system: SVPs from patient K826 (HBV GtA); assay: Binding of nanodisc-reconstituted NTCP-eYFP to SVPs of patient K826 (GtA); conditions: 25–100 nM
Protocol: as §2, §3

Compound	block of preS1-AX568 binding to NTCP (in words) (human NTCP)	TC transport, effect of Gly158Arg mutation (Gly158Arg human NTCP)	TC transport, effect of Gly158Arg mutation [1]	binding to GtD SVPs (in words) [2]	binding to GtA SVPs (in words) [3]
C[C@H](CCC(=O)NCCS(=O)(=O)O)[C@H]1CC[C@H]2[C@@H]3[C@H](O)C[C@@H]4C[C@H](O)CC[C@]4(C)[C@H]3C[C@H](O)[C@]12C [TC, taurocholic acid]	can be blocked	maintaining the transport activity of NTCP for TC	maintaining the transport activity of NTCP for TC		
NTCP: nanodisc-reconstituted, eYFP-labeled wild-type human NTCP				concentration-dependent binding	concentration-dependent binding
